Measurements taken from PubChem BioAssay (NCI).
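Assay format: 96-well plates, 48-hour exposure. Here, GI50 denotes the concentration required for 50% inhibition of growth. TGI: concentration producing complete growth inhibition.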

Experiments:
Assay in all cases: growth of human tumour cells (NCI), 48 h
[1] = tested on: HS 578T breast
[2] = tested on: SR leukemia
[3] = tested on: SK-MEL-5 melanoma
[4] = tested on: M14 melanoma
[5] = tested on: MDA-MB-435
[6] = tested on: CAKI-1 renal
[7] = tested on: A549 NSCLC
[8] = tested on: DU-145 prostate
[9] = tested on: UACC-257 melanoma
[10] = tested on: HCT-15 colon
[11] = tested on: HT29 colon
[12] = tested on: HOP-62 NSCLC
[13] = tested on: MALME-3M melanoma
[14] = tested on: SN12C renal
[15] = tested on: NCI-H23 lung
[16] = tested on: RPMI-8226 leukemia
[17] = tested on: UO-31 renal
[18] = tested on: HOP-92 NSCLC
[19] = tested on: SW-620 colon
[20] = tested on: RXF 393 renal
[21] = tested on: TK-10 renal
[22] = tested on: HCT-116 colon
[23] = tested on: IGROV1 ovarian
[24] = tested on: SNB-19 CNS
[25] = tested on: OVCAR-8 ovarian
[26] = tested on: BT-549 breast
[27] = tested on: COLO 205 colon
[28] = tested on: NCI-H460 lung
[29] = tested on: A498 renal
[30] = tested on: UACC-62 melanoma
[31] = tested on: SNB-75 CNS
[32] = tested on: SK-OV-3 ovarian
[33] = tested on: OVCAR-3 ovarian
[34] = tested on: SF-268 CNS
[35] = tested on: SK-MEL-28 melanoma
[36] = tested on: K-562 leukemia
[37] = tested on: NCI-H522 lung
[38] = tested on: SF-539 CNS
[39] = tested on: NCI-H226 lung
[40] = tested on: 786-0 renal
[41] = tested on: T-47D breast
[42] = tested on: ACHN renal
[43] = tested on: HL-60(TB) leukemia
[44] = tested on: U251 CNS
[45] = tested on: MOLT-4 leukemia
[46] = tested on: OVCAR-4 ovarian
[47] = tested on: PC-3 prostate
[48] = tested on: OVCAR-5 ovarian
[49] = tested on: LOX IMVI melanoma
[50] = tested on: EKVX NSCLC
[51] = tested on: NCI/ADR-RES ovarian
[52] = tested on: CCRF-CEM leukemia
[53] = tested on: SF-295 CNS
[54] = tested on: MCF7 breast
[55] = tested on: KM12 colon
[56] = tested on: MDA-MB-231 breast
[57] = tested on: SK-MEL-2 melanoma
[58] = tested on: HCC-2998 colon

SMILES: O=C(CNc1c(Cl)cccc1Cl)Nc1ccc(-c2nc3ccccc3s2)cc1
- GI50 [1]: 5.11 µM
- TGI [1]: 67.8 µM
- GI50 [2]: 0.797 µM
- TGI [2]: > 23.1 µM
- GI50 [3]: 1.61 µM
- TGI [3]: 3.3 µM
- GI50 [4]: 2.05 µM
- TGI [4]: 5.52 µM
- GI50 [5]: 2.64 µM
- TGI [5]: 10.9 µM
- GI50 [6]: 2.26 µM
- TGI [6]: 5.79 µM
- GI50 [7]: 5.83 µM
- TGI [7]: 26.6 µM
- GI50 [8]: 3.41 µM
- TGI [8]: 10.7 µM
- GI50 [9]: 4.27 µM
- TGI [9]: 16.6 µM
- GI50 [10]: 1.78 µM
- TGI [10]: 5.28 µM
- GI50 [11]: 2.16 µM
- TGI [11]: 4.76 µM
- GI50 [12]: 6.8 µM
- TGI [12]: 21.3 µM
- GI50 [13]: 1.85 µM
- TGI [13]: 3.75 µM
- GI50 [14]: 2.31 µM
- TGI [14]: 7.1 µM
- GI50 [15]: 2.06 µM
- TGI [15]: 4.58 µM
- GI50 [16]: 2.44 µM
- TGI [16]: > 22.8 µM
- GI50 [17]: 3.62 µM
- TGI [17]: 9.13 µM
- GI50 [18]: 1.66 µM
- TGI [18]: 4.45 µM
- GI50 [19]: 2.2 µM
- TGI [19]: 4.9 µM
- GI50 [20]: 4.15 µM
- TGI [20]: 9.73 µM
- GI50 [21]: 2.04 µM
- TGI [21]: 4.69 µM
- GI50 [22]: 1.98 µM
- TGI [22]: 4.93 µM
- GI50 [23]: 2.3 µM
- TGI [23]: 5.85 µM
- GI50 [24]: 3.14 µM
- TGI [24]: 12.5 µM
- GI50 [25]: 3.01 µM
- TGI [25]: > 29.8 µM
- GI50 [26]: 1.72 µM
- TGI [26]: 4.64 µM
- GI50 [27]: 2.33 µM
- TGI [27]: 4.81 µM
- GI50 [28]: 2.69 µM
- TGI [28]: 7.96 µM
- GI50 [29]: 8.93 µM
- TGI [29]: 23.4 µM
- GI50 [30]: 1.71 µM
- TGI [30]: 3.87 µM
- GI50 [31]: 2.42 µM
- TGI [31]: 8.22 µM
- GI50 [32]: 9.11 µM
- TGI [32]: 70.6 µM
- GI50 [33]: 1.97 µM
- TGI [33]: 3.73 µM
- GI50 [34]: 2.4 µM
- TGI [34]: 6.44 µM
- GI50 [35]: 2.61 µM
- TGI [35]: 7.31 µM
- GI50 [36]: 1.24 µM
- TGI [36]: > 33.9 µM
- GI50 [37]: 1.56 µM
- TGI [37]: 3.61 µM
- GI50 [38]: 1.88 µM
- TGI [38]: 3.62 µM
- GI50 [39]: 2.17 µM
- TGI [39]: 5.72 µM
- GI50 [40]: 1.78 µM
- TGI [40]: 3.76 µM
- GI50 [41]: 1.89 µM
- TGI [41]: 5.37 µM
- GI50 [42]: 1.97 µM
- TGI [42]: 3.93 µM
- GI50 [43]: 2.37 µM
- TGI [43]: 7.5 µM
- GI50 [44]: 2.06 µM
- TGI [44]: 4.65 µM
- GI50 [45]: 0.666 µM
- TGI [45]: > 27.3 µM
- GI50 [46]: 1.95 µM
- TGI [46]: 5.19 µM
- GI50 [47]: 1.66 µM
- TGI [47]: 3.52 µM
- GI50 [48]: 2.53 µM
- TGI [48]: 7.79 µM
- GI50 [49]: 1.39 µM
- TGI [49]: 2.88 µM
- GI50 [50]: 11.2 µM
- TGI [50]: 28.2 µM
- GI50 [51]: 3.22 µM
- TGI [51]: 9.89 µM
- GI50 [52]: 0.485 µM
- GI50 [53]: 15.6 µM
- TGI [53]: 30.2 µM
- GI50 [54]: 0.0913 µM
- TGI [54]: 5.7 µM
- GI50 [55]: 2.62 µM
- TGI [55]: 6.94 µM
- GI50 [56]: 2.67 µM
- TGI [56]: 7.31 µM
- GI50 [57]: 3.32 µM
- TGI [57]: 12.4 µM
- GI50 [58]: 2.11 µM
- TGI [58]: 4.29 µM
